For 17 molecules, inhibition and IC50 results are on record in patent US10030020B2, “Spirocycle compounds and methods of making and using same” (Abide Therapeutics, Inc., priority 2016, dated 2018).

What all share (assay type): biochemical
One experiment concerns the target FAAH (Mus musculus (Mouse), UniProt O08914). The experiment in a line: In vitro competitive activity-based protein profiling (mouse brain membrane fraction or cell lysates), FAAH band. The note with it: mouse proteome; for inhibition at 1 µM: read-out: FAAH % Inh 1 μM (mouse); for IC50: competitive ABPP. The protocol: (§1) In Vitro Competitive Activity-Based Protein Profiling.
(§2) Proteomes (mouse brain membrane fraction or cell lysates) (50 μL, 1.0 mg/mL total protein concentration) were preincubated with varying concentrations of inhibitors at 37° C. After 30 min, FP—Rh (1.0 μL, 50 μM in DMSO) was added and the mixture was incubated for another 30 min at 37° C. Reactions were quenched with SDS loading buffer (50 μL-4×) and run on SDS-PAGE. Following gel imaging, serine hydrolase activity was determined by measuring fluorescent intensity of gel bands corresponding to MAGL, ABHD6 and FAAH using ImageJ 1.43u software.

For a further experiment, the target named is MAGL (Mus musculus (Mouse), UniProt O35678). The experiment in a line: In vitro competitive activity-based protein profiling (mouse brain membrane fraction or cell lysates), MAGL band. The note with it: mouse proteome; for inhibition at 1 µM: read-out: MAGL % Inh 1 μM (mouse); for IC50: competitive ABPP. How it is done:
as §1
Proteomes (mouse brain membrane fraction or cell lysates) (50 μL, 1.0 mg/mL total protein concentration) were preincubated with varying concentrations of inhibitors at 37° C. After 30 min, FP—Rh (1.0 μL, 50 μM in DMSO) was added and the mixture was incubated for another 30 min at 37° C. Reactions were quenched with SDS loading buffer (50 μL-4×) and run on SDS-PAGE.

Another experiment has as its target ABHD6 (Mus musculus (Mouse), UniProt Q8R2Y0). In words: In vitro competitive activity-based protein profiling (mouse brain membrane fraction or cell lysates), ABHD6 band. The settings on record: mouse proteome; for inhibition at 1 µM: read-out: ABHD6 % Inh 1 μM (mouse); for IC50: competitive ABPP. How it is done:
as §1, §2

Chain of MAGL (O35678 whole entry): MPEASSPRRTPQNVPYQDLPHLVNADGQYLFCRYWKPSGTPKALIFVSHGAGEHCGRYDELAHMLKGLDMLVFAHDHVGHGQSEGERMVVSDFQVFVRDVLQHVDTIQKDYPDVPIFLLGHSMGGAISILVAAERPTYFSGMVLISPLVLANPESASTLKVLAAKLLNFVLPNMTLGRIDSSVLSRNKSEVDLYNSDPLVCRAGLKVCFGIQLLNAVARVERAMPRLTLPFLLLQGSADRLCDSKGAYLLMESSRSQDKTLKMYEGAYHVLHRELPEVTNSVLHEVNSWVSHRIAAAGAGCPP
Chain of FAAH (O08914 whole entry): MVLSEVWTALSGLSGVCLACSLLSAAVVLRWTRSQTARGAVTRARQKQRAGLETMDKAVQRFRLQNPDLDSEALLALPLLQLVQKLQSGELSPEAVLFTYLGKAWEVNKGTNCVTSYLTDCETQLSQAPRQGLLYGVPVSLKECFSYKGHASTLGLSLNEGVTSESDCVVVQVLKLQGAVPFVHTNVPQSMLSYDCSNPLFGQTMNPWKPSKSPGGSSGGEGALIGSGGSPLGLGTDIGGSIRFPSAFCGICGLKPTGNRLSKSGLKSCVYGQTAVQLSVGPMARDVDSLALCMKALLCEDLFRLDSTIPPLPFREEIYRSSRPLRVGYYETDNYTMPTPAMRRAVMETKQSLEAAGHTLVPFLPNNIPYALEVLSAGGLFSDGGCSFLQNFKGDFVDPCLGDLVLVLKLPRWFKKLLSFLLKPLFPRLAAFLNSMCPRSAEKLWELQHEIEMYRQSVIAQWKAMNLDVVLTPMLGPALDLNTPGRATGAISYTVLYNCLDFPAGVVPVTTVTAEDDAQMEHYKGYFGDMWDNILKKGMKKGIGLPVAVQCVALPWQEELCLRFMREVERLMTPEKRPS
Chain of ABHD6 (Q8R2Y0 whole entry): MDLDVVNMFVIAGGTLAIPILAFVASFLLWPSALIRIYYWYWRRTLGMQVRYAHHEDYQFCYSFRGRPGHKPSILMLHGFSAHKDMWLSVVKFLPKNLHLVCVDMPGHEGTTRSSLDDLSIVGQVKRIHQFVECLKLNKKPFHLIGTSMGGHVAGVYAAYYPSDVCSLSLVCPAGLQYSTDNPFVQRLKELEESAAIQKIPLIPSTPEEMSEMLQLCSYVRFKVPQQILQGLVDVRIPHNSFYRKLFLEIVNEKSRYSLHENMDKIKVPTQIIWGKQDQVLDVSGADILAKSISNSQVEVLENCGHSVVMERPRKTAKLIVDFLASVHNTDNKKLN

Broadly, the IC50 is the concentration that inhibits the measured activity by half. The low end stands for higher potency, the high end for lower potency. As for `O=C(OC(C(F)(F)F)C(F)(F)F)N1CCC2(CCCN2Cc2cccc(N3CCC(F)CC3)c2Cl)CC1` [Example 110, 1,1,1,3,3,3-Hexafluoropropan-2-yl 1-(2-chloro-3-(4-fluoropiperidin-1-yl)benzyl)-1,8-diazaspiro[4.5]decane-8-carboxylate], the values for the inhibition at 1 µM on FAAH, on MAGL and at ABHD6 were under 25%, over 75% and under 25%, respectively. In addition, the IC50 at FAAH is over 1000 nM; at MAGL it was under 100 nM; on ABHD6, over 1000 nM.

On to `O=C(OC(C(F)(F)F)C(F)(F)F)N1CCC2(CCCN2Cc2cccc(N3CCC(F)(F)CC3)c2Cl)CC1` [Example 111, 1,1,1,3,3,3-Hexafluoropropan-2-yl 1-(2-chloro-3-(4,4-difluoropiperidin-1-yl)benzyl)-1,8-diazaspiro[4.5]decane-8-carboxylate], for which the inhibition at 1 µM at FAAH is under 25%; on MAGL, over 75%; at ABHD6 it was under 25%. Further, the half-inhibitory concentration (IC50) on FAAH was over 1000 nM; at MAGL, under 100 nM; on ABHD6, over 1000 nM.

As to `O=C(OC(C(F)(F)F)C(F)(F)F)N1CCC2(CCCN2Cc2cccc(N3CC4COCC4C3)c2Cl)CC1` (centres unmarked) [Example 112, 1,1,1,3,3,3-Hexafluoropropan-2-yl 1-(2-chloro-3-(tetrahydro-1H-furo[3,4-c]pyrrol-5(3H)-yl)benzyl)-1,8-diazaspiro[4.5]decane-8-carboxylate], the inhibition at 1 µM at FAAH was under 25%; at MAGL, over 75%; on ABHD6, under 25%. The figures for the 50% inhibitory concentration (IC50) at FAAH, at MAGL and on ABHD6 were over 1000 nM, under 100 nM and over 1000 nM, respectively.

As to `CS(=O)(=O)N1CCN(c2cccc(CN3CCCC34CCN(C(=O)OC(C(F)(F)F)C(F)(F)F)CC4)c2Cl)CC1` [Example 113, 1,1,1,3,3,3-Hexafluoropropan-2-yl 1-(2-chloro-3-(4-(methylsulfonyl)piperazin-1-yl)benzyl)-1,8-diazaspiro[4.5]decane-8-carboxylate], the inhibition at 1 µM at FAAH was under 25%; at MAGL, over 75%; on ABHD6, under 25%. Besides, the results for the IC50 at FAAH, at MAGL and on ABHD6 were over 1000 nM, under 100 nM and over 1000 nM, respectively.

Turning to `CC(=O)N1CCN(c2cccc(CN3CCCC34CCN(C(=O)OC(C(F)(F)F)C(F)(F)F)CC4)c2Cl)CC1` [Example 114, 1,1,1,3,3,3-Hexafluoropropan-2-yl 1-(3-(4-acetylpiperazin-1-yl)-2-chlorobenzyl)-1,8-diazaspiro[4.5]decane-8-carboxylate], the values for the inhibition at 1 µM on FAAH, at MAGL and at ABHD6 were under 25%, over 75% and 25 to 75%, respectively. Moreover, the figures for the IC50 at FAAH, at MAGL and at ABHD6 were over 1000 nM, under 100 nM and over 1000 nM, respectively.

In the case of `O=C(OC(C(F)(F)F)C(F)(F)F)N1CCC2(CCCN2Cc2cccc(N3CCN(C4CC4)CC3)c2Cl)CC1` [Example 115, 1,1,1,3,3,3-Hexafluoropropan-2-yl 1-(2-chloro-3-(4-cyclopropylpiperazin-1-yl)benzyl)-1,8-diazaspiro[4.5]decane-8-carboxylate], the inhibition at 1 µM on FAAH is under 25%; on MAGL, over 75%; on ABHD6 it was under 25%. For the same molecule, the IC50 on FAAH and on ABHD6 was over 1000 nM in each case.

`CCN1CCN(c2cccc(CN3CCCC34CCN(C(=O)OC(C(F)(F)F)C(F)(F)F)CC4)c2Cl)CC1` [Example 116, 1,1,1,3,3,3-Hexafluoropropan-2-yl 1-(2-chloro-3-(4-ethylpiperazin-1-yl)benzyl)-1,8-diazaspiro[4.5]decane-8-carboxylate]: the results for the inhibition at 1 µM on FAAH, at MAGL and on ABHD6 were under 25%, over 75% and under 25%, respectively. Moreover, the IC50 on FAAH is over 1000 nM; on MAGL, under 100 nM; at ABHD6 it was over 1000 nM.

Take `O=C(OC(C(F)(F)F)C(F)(F)F)N1CCC2(CCCN2Cc2cccc(N3CCC4(CCOCC4)C3)c2Cl)CC1` [Example 117, 1,1,1,3,3,3-Hexafluoropropan-2-yl 1-(2-chloro-3-(8-oxa-2-azaspiro[4.5]decan-2-yl)benzyl)-1,8-diazaspiro[4.5]decane-8-carboxylate]: the inhibition at 1 µM on FAAH is under 25%; at MAGL it was over 75%; at ABHD6, under 25%. In addition, the IC50 on FAAH and at ABHD6 was over 1000 nM in each case.

Take `O=C(OC(C(F)(F)F)C(F)(F)F)N1CCC2(CCCN2Cc2ccc3c(c2)OCCO3)CC1` [Example 126, 1,1,1,3,3,3-Hexafluoropropan-2-yl 1-(2,3-dihydro-1,4-benzodioxin-6-ylmethyl)-1,8-diazaspiro[4.5]decane-8-carboxylate]: the inhibition at 1 µM on FAAH is under 25%; on MAGL it was over 75%; at ABHD6, 25 to 75%. Further, the values for the IC50 at FAAH, at MAGL and on ABHD6 were over 1000 nM, under 100 nM and over 1000 nM, respectively.

Turning to `O=C(OC(C(F)(F)F)C(F)(F)F)N1CCC2(CCCN2Cc2ccc(N3CCOCC3)c(Cl)c2)CC1` [Example 127, 1,1,1,3,3,3-Hexafluoropropan-2-yl 1-(3-chloro-4-morpholinobenzyl)-1,8-diazaspiro[4.5]decane-8-carboxylate], the figures for the inhibition at 1 µM at FAAH, on MAGL and at ABHD6 were under 25%, over 75% and 25 to 75%, respectively. Further, the IC50 at FAAH and on ABHD6 was over 1000 nM throughout.

On to `O=C(OC(C(F)(F)F)C(F)(F)F)N1CCC2(CCCN2Cc2ccc(Cl)c(N3CCOCC3)c2)CC1` [Example 131, 1,1,1,3,3,3-Hexafluoropropan-2-yl 1-(4-chloro-3-morpholinobenzyl)-1,8-diazaspiro[4.5]decane-8-carboxylate], for which the inhibition at 1 µM is under 25% on FAAH, over 75% at MAGL and under 25% on ABHD6. Further, the IC50 was over 1000 nM at FAAH, under 100 nM on MAGL and over 1000 nM at ABHD6.

Turning to `Cc1cc(CN2CCC3(CCN(C(=O)OC(C(F)(F)F)C(F)(F)F)CC3)C2)ccc1Cl` [Example 135, 1,1,1,3,3,3-Hexafluoropropan-2-yl 2-(4-chloro-3-methylbenzyl)-2,8-diazaspiro[4.5]decane-8-carboxylate], the inhibition at 1 µM was under 25% at FAAH, over 75% on MAGL and at least 75% on ABHD6. In addition, the IC50 at FAAH was over 1000 nM; on MAGL it was under 100 nM; on ABHD6, 100 to 1000 nM.

`Cc1ccc(CN2CCC3(CCN(C(=O)OC(C(F)(F)F)C(F)(F)F)CC3)C2)cc1Cl` [Example 136, 1,1,1,3,3,3-Hexafluoropropan-2-yl 2-(3-chloro-4-methylbenzyl)-2,8-diazaspiro[4.5]decane-8-carboxylate]: the inhibition at 1 µM at FAAH was under 25%; at MAGL it was over 75%; on ABHD6 it was at least 75%. Also, the IC50 was over 1000 nM on FAAH, 100 to 1000 nM on MAGL and 100 to 1000 nM at ABHD6.

For `O=C(OC(C(F)(F)F)C(F)(F)F)N1CCC2(CCN(Cc3ccc4c(c3)OCCO4)C2)CC1` [Example 137, 1,1,1,3,3,3-Hexafluoropropan-2-yl 2-((2,3-dihydrobenzo[b][1,4]dioxin-6-yl)methyl)-2,8-diazaspiro[4.5]decane-8-carboxylate], the inhibition at 1 µM at FAAH is under 25%; on MAGL, over 75%; on ABHD6 it was at least 75%. Moreover, the IC50 was over 1000 nM on FAAH, 100 to 1000 nM at MAGL and under 100 nM on ABHD6.

Take `O=C(OC(C(F)(F)F)C(F)(F)F)N1CCC2(CCN(Cc3ccc(N4CCOCC4)c(Cl)c3)C2)CC1` [Example 138, 1,1,1,3,3,3-Hexafluoropropan-2-yl 2-(3-chloro-4-morpholinobenzyl)-2,8-diazaspiro[4.5]decane-8-carboxylate]: the inhibition at 1 µM at FAAH is under 25%; on MAGL, over 75%; at ABHD6, at least 75%. The IC50 on FAAH was over 1000 nM; at ABHD6, under 100 nM.

For `O=C(OC(C(F)(F)F)C(F)(F)F)N1CCC2(CCN(Cc3ccc(N4CCCC4)c(Cl)c3)C2)CC1` [Example 139, 1,1,1,3,3,3-Hexafluoropropan-2-yl 2-(3-chloro-4-(pyrrolidin-1-yl)benzyl)-2,8-diazaspiro[4.5]decane-8-carboxylate], the inhibition at 1 µM on FAAH is under 25%; on MAGL, over 75%; at ABHD6, at least 75%. Further, the figures for the IC50 on FAAH, on MAGL and on ABHD6 were over 1000 nM, 100 to 1000 nM and 100 to 1000 nM, respectively.

In the case of `O=C(OC(C(F)(F)F)C(F)(F)F)N1CCC2(CCN(Cc3ccc(N4CCOCC4)c(C(F)(F)F)c3)C2)CC1` [Example 140, 1,1,1,3,3,3-Hexafluoropropan-2-yl 2-(4-morpholino-3-(trifluoromethyl)benzyl)-2,8-diazaspiro[4.5]decane-8-carboxylate], the inhibition at 1 µM is under 25% at FAAH, over 75% on MAGL and at least 75% on ABHD6. Moreover, the IC50 on FAAH was over 1000 nM; at MAGL, under 100 nM; at ABHD6, 100 to 1000 nM.
